Read-outs that look alike come from different tables or passages of the source.
Legend:
[1] = target: T1, S. pneumoniae FtsZ (SpnFtsZ) (Streptococcus pneumoniae, UniProt A0A0H2ZNE0); details: cited from earlier work
Bacillus subtilis 168 [2] = tested on: Bacillus subtilis 168; design: method as in PMID 28002947; details: cited from earlier work
Bacillus subtilis 168 [3] = assay: Growth inhibition / MIC by agar dilution, Bacillus subtilis 168; type: cell-based
Method: (§1) The Minimum Inhibitory Concentration (MIC) was determined as described previously, following the agar dilution method. From an overnight culture of Bacillus subtilis 168 (Bs 168), 2% inoculation was performed to a fresh tube containing Luria Broth. When the bacteria reached an O.D600 = 0.4, the culture was serially diluted to a dilution factor of 10^4. Then, 20 μL of the diluted culture was spotted on plates containing different concentrations of 3 (0, 1, 3, 5, 7, 9, 10, 11, 12, 13 μM) and incubated, at 37 °C, for […], after which the colonies were counted. Similar procedure was performed for Streptococcus pneumoniae TIGR4. Bacteria were grown in Todd–Hewitt Yeast Broth up to 0.4 OD600 and serially diluted. Upon addition on to BHI agar plates containing different concentrations of 3 (0.5, 1, 1.5, 2, 3, 5, 7, 10 μM), the colonies were incubated for 24 h, at 37 °C, with 5% CO2. […] IC50 was determined by plotting percentage inhibition versus log of concentration of drug, using GraphPad Prism 7 software.

membrane of Bs 168 cells = assay: Membrane staining of live cells with FM 4-64; type: cell-based, Bacillus subtilis; details: Bs 168, 8 μM, 10 min
Method: Membrane staining of live Bs 168 cells was performed using FM 4–64 stain [28]. Bs 168 cells were grown as described above and treated with 8 μM 3 or equivalent volume of DMSO for 10 min. Cells were pelleted down and resuspended in PBS containing 10 μg/mL FM-4–64 dye. After incubation for another 10 min under shaking conditions in the dark, the cells were washed with PBS to remove excess dye. The cells were then mounted on the slide pre-coated with poly-L-lysine and covered with a coverslip. Images were captured in Confocal Laser Scanning Microscope—Carl Zeiss, LSM 780.

alkaline phosphatase = assay: Alkaline phosphatase activity assay; type: biochemical; details: 5, 10 and 20 μM, PNPP substrate
Method: Alkaline phosphatase assay was performed as described previously. Then, 2 U/mL Alkaline Phosphatase enzyme in glycine NaOH buffer, pH 10.4 with 100 mM glycine, 1 mM MgCl2, and 0.1 mM ZnCl2 was incubated with different concentrations (5, 10, and 20 μM) of 3 for 10 min on ice. Immediately after the addition of 250 μM para-4-nitrophenyl phosphate (PNPP), the absorbance at 410 nm was measured for 700 s in a JASCO V-730 spectrophotometer.

Z-ring in Bs 168 cells = assay: Immunostaining for Z-ring and nucleoid, Bs 168; type: cell-based, Bacillus subtilis; details: Bs 168, 8 μM, 10 min
Method: (§2) Immunostaining of Bs 168 cells was performed as described previously. Briefly, from an overnight culture of Bs 168, 2% inoculation was performed to a fresh tube containing Luria Broth. When the bacteria reached an O.D600 = 0.4, the culture was divided into two fractions. To one fraction, 8 μM 3 was added, and to another, an equal volume of DMSO. The cells were incubated at 37 °C under shaking conditions for 10 min. Cells were then fixed for 30 min with 2.8% formaldehyde and 0.04% glutaraldehyde. Cells were permeabilized using 0.1% Triton X-100 and then treated with 1 mg/mL lysozyme and 5 mM EDTA for 45 min. Treatment with 0.5% BSA for 30 min was performed to block non-specific binding sites. Then, 1 h treatment each with primary antibody, anti-FtsZ antibody raised in rabbit (1:50 dilution) and secondary antibody (1:400), Alexa Fluor^TM 594 goat anti-rabbit IgG (H+L) was performed. Nucleoid staining was performed with 1 µg/mL 4′-6-diamidino-2-phenylindole (DAPI) for 20 min. Images were captured using Confocal Laser Scanning Microscope—Carl Zeiss, LSM 780. Similar procedure was followed for Sp TIGR4, which was treated with 2 μM 3 for 1 h before following the above immunostaining procedure.

SpnFtsZ [4] = assay: FtsZ sedimentation assay; type: biochemical, Streptococcus pneumoniae; details: 10 μM compound, 10 μM SpnFtsZ, p = 0.02
Method: SpnFtsZ (10 μM) in PKM buffer was incubated with different concentrations of 3 (0.5, 1, 3, 6, 10) for 20 min at 25 °C. The reaction mixture was allowed to polymerize by adding 1 mM GTP and incubated for 600 s, at 37 °C. The mixture was then subjected to ultra-centrifugation at 60,000 RPM for 30 min at 30 °C. The supernatant was collected and quantified using Bradford’s reagent. The amount of FtsZ present in the pellet was assessed by subtracting the supernatant concentration from the total protein [30].

SpnFtsZ [5] = assay: Transmission electron microscopy of SpnFtsZ filaments; type: biochemical, Streptococcus pneumoniae; details: 10 μM compound
Method: SpnFtsZ (10 μM) in PKM buffer was incubated without and with 10 μM 3 for 20 min, at 25 °C. The mixture was then polymerized by the addition of 1 mM GTP for 200 s, at 37 °C. Samples for EM were prepared on a fresh carbon–formvar-coated copper EM grid according to a previously described method. Imaging was performed the next day using JEOL JEM 1220 HRTEM (200 kV). ImageJ software was used to determine the length of the FtsZ filaments.

[6] = target: T2, FtsZ from Bacillus subtilis (BsFtsZ) (Bacillus subtilis, UniProt P17865); assay: Transmission electron microscopy of BsFtsZ filaments; type: biochemical; details: 20 μM compound, 5 μM BsFtsZ
T2 construct: made in house
T2 sequence (P17865 whole entry): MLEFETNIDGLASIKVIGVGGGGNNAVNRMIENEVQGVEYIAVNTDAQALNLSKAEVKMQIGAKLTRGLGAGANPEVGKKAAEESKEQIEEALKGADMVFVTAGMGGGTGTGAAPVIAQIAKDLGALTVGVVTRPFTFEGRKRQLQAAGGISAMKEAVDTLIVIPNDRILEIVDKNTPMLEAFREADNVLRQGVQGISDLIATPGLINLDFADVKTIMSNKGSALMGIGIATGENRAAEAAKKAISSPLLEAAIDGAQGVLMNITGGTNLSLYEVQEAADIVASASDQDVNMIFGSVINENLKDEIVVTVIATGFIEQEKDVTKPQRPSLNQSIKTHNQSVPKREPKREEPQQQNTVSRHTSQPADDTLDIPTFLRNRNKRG
Method: In another experiment, BsFtsZ (5 μM) in PKM buffer was incubated without and with 20 μM 3 for 20 min, at 25 °C. The mixture was then polymerized by the addition of 1 mM GTP for 600 s, at 37 °C. Samples for imaging were prepared using the same procedure described above.

[7] = target: T1, S. pneumoniae FtsZ (SpnFtsZ); assay: Binding to SpnFtsZ by tryptophan fluorescence
Method: The binding of 3 to SpnFtsZ was assessed using tryptophan fluorescence. The decrease in the fluorescence intensity of SpnFtsZ in the presence of 3 was measured. Then, 2 μM of SpnFtsZ in 50 mM PIPES pH 7.4, 50 mM KCl, was incubated with different concentrations of 3 (0.2, 0.5, 1, 1.5, 2, 3, 4, 5, 7, 10), at 25 °C, for 10 min. The fluorescence spectra were measured at an emission range of 310 nm to 410 nm, after excitation at 295 nm in JASCO FP-8300 spectrofluorometer. Due to the absorbance of 3 at 340 nm, inner filter correction was performed using the below equation:(1) Fcorrected=Fobserved∗antilog ODex+ODem/2
The binding constant, Kd, was determined using the following equation:(2) ∆F=∆Fmax×L/Kd+L
ΔF is the change in the fluorescence intensity of SpnFtsZ, ΔFmax is the maximal change in the fluorescence of SpnFtsZ when the receptor site is fully occupied, and [L] is the concentration of 3.

[8] = tested on: Streptococcus pneumoniae TIGR4; assay: Growth inhibition / MIC by agar dilution, Streptococcus pneumoniae TIGR4; type: cell-based; details: for MIC: Streptococcus pneumoniae
Method: as §1

SpnFtsZ [9] = assay: Atomic force microscopy of SpnFtsZ filaments; type: biochemical, Streptococcus pneumoniae; details: 10 μM compound, 4 μM SpnFtsZ; control filaments 9.02 ± 5.2 nm
Method: Then, 4 μM SpnFtsZ in PKM buffer was incubated with or without 10 μM 3, for 20 min, at 25 °C. Upon addition of 1 mM GTP, FtsZ was polymerized for 300 s, at 37 °C. AFM samples were prepared according to a previously described method. Then, 20 μL of each sample was added onto the mica sheet and allowed to absorb on it for 15 min. The sheet was then washed with MilliQ and allowed to dry overnight. The samples were imaged the next day using MFP-3D BIO, Asylum Research USA.

Z-ring in Sp TIGR4 = assay: Immunostaining for Z-ring and nucleoid, Sp TIGR4; type: cell-based, Streptococcus pneumoniae; details: Sp TIGR4, 2 μM, 1 h
Method: as §2

[10] = tested on: S. pneumoniae TIGR4 cells; assay: Scanning electron microscopy of cell morphology; type: cell-based, Streptococcus pneumoniae; details: Sp TIGR4, 2 μM, 1 h, SEM
Method: Sp TIGR4 was grown as described above and treated with 2 μM 3 or equivalent volume of DMSO for 1 h. The cells were then fixed with 2.8% formaldehyde and 0.04% glutaraldehyde and resuspended in PBS as described earlier. A small volume (5 μL) was spotted on an aluminium foil and allowed to air dry completely. Images were captured using Field Emission Gun-Scanning Electron Microscope (FEG-SEM) JSM-7600F.

SpnFtsZ [11] = assay: FtsZ polymerization by light scattering at 400 nm; type: biochemical, Streptococcus pneumoniae; details: 10 μM SpnFtsZ, 1 mM GTP, increasing concentration
Method: SpnFtsZ (10 μM) in 50 mM PIPES pH 7.4, 50 mM KCl and 5 mM MgCl2 (PKM) buffer was incubated with different concentrations of 3 (0, 1, 2, 3, 5, 6, 7) for 20 min, at 25 °C. After the addition of 1 mM GTP, the polymerization was monitored for 600 s, at 37 °C, using light scattering at 400 nm in a JASCO FP-8300 spectrofluorometer.

[12] = Cytotoxicity testing in mouse skin L929 cells; type: cell-based; details: read-out: GI50 (concentration for 50% cell growth inhibition)
tubulin = assay: Tubulin polymerization assay; type: biochemical, goat; details: 13 μM tubulin, light scattering at 350 nm
Method: Streptococcus pneumoniae FtsZ (SpnFtsZ) and Bacillus subtilis FtsZ (BsFtsZ) were purified as described previously. Tubulin from goat brain was purified as described previously. The concentration of all the proteins was estimated using Bradford’s reagent.
Tubulin polymerization was performed as described previously. Purified tubulin (13 μM) in PEM buffer (50 mM PIPES pH 6.8, 3 mM MgCl2 and 1 mM EGTA) + 10% DMSO was incubated with 3 for 10 min on ice. Then, 1 mM GTP was added to the mixture, and polymerization was monitored by light scattering in SoftMax Spectra Multi Plate reader for 30 min, at 37 °C. The excitation and emission wavelengths were set to 350 nm.

S. pneumoniae = tested on: S. pneumoniae; design: method as in PMID 18801997; details: cited from earlier work

T1 sequence (A0A0H2ZNE0 whole entry): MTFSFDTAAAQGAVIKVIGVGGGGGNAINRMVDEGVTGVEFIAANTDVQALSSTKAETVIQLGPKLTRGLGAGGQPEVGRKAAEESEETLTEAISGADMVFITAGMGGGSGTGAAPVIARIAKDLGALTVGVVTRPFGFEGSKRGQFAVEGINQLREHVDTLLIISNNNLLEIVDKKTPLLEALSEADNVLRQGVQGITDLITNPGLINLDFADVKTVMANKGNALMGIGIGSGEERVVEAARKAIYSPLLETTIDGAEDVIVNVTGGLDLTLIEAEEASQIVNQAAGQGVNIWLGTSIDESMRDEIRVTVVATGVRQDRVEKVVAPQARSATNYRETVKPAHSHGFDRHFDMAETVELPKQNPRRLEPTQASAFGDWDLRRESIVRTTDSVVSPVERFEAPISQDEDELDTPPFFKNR

Structure (SMILES): O=C(/C=C/c1ccc(O)cc1)C1CCC/C(=C\c2ccc(O)cc2)C1=O (centres unmarked) [Compound 1]
- Kd [1]: 4 ± 1.1 µM
- IC50 (Bacillus subtilis 168 [2]; Bs168): 1.2 ± 0.5 µM
- MIC (Bacillus subtilis 168 [2]; Bs168 cells): 2.0 to 4.0 µg/mL
- melting point: 225 to 227 °C

Structure (SMILES): O=C(CCc1ccc(O)cc1)c1cccc(Cc2ccc(O)cc2)c1O [Compound 2, 1-{2-Hydroxy-3-(4-hydroxybenzyl)phenyl}-3-(4-hydroxyphenyl)propan-1-one]
- inhibition at 15 µM (Bacillus subtilis 168 [3]; Bacillus subtilis, 168, treatment with 15 µM, read-out: inhibition of growth of B. subtilis (Bs168)): 21.5 ± 0.5%

Structure (SMILES): O=C(CCc1ccc(O)cc1)[C@@H]1CCC[C@H](Cc2ccc(O)cc2)C1=O [Compound 3, 2-(4-Hydroxybenzyl)-6-{3-(4-hydroxyphenyl)propanoyl}cyclohexan-1-one]
- effect on cell membrane (membrane of Bs 168 cells): remains intact
- inhibition of alkaline phosphatase activity (alkaline phosphatase): no detectable inhibitory activity
- effect on nucleoid separation (Z-ring in Bs 168 cells; DAPI): no effect on the nucleoid separation
- dividing cells with a prominent Z-ring (Z-ring in Bs 168 cells; control 35 ± 17%): 3 ± 3%
- reduction of FtsZ pellet compared to control (SpnFtsZ [4]): 17%
- FtsZ aggregation (TEM) (SpnFtsZ [5]; 10 μM SpnFtsZ): large aggregates were seen throughout the grid
- length of FtsZ filaments (TEM) (SpnFtsZ [5]; control 2.1 ± 1.2 μm): 0.7 ± 0.6 μm
- BsFtsZ aggregation (TEM) [6]: large aggregates of BsFtsZ
- Kd [7]: 2.2 ± 0.3 µM
- IC50 ([8]; Streptococcus pneumoniae TIGR4, inhibition of proliferation): 1 ± 0.01 µM
- MIC ([8]; TIGR4, 24 h, Streptococcus pneumoniae TIGR4, agar dilution, 24 h, read-out: MIC): 2 µM
- MIC ([8]; TIGR4, S. pneumoniae, converted from µM, read-out: MIC (equivalent)): ≤ 0.7 µg/mL
- average height of FtsZ aggregates (AFM) (SpnFtsZ [9]): 233.2 ± 151.2 nm
- effect on nucleoid separation (Z-ring in Sp TIGR4; DAPI): no effect on the nucleoid separation
- percentage of cells without a Z-ring (Z-ring in Sp TIGR4; control 50%): 73%
- effect on cell morphology and membrane [10]: no changes in the morphology
- effect on FtsZ polymerization (light scattering) (SpnFtsZ [11]): inhibits FtsZ polymerization
- GI50 [12]: 7 ± 2.35 µM
- MIC (Bacillus subtilis 168 [3]; Bacillus subtilis, 168, 6 h, Bs168, agar dilution, 6 h, 37 °C, read-out: MIC): 11 µM
- MIC (Bacillus subtilis 168 [3]; Bacillus subtilis, 168, Bs168 cells, converted from µM, read-out: MIC (equivalent)): ≤ 3.5 µg/mL
- IC50 (Bacillus subtilis 168 [3]; Bacillus subtilis, 168, Bs168, inhibition of proliferation): 4.97 ± 0.01 µM
- inhibition of tubulin polymerization (tubulin): no significant inhibition

Structure (SMILES): NC(=O)c1c(F)ccc(OCc2nc3cc(Cl)cnc3s2)c1F [PC190723 4, PC190723]
- MIC (S. pneumoniae): more than 64 µg/mL
- MIC (S. pneumoniae; converted from µg/mL): > 180 µM

— paper PMC9610434, “Discovery of 2′,6-Bis(4-hydroxybenzyl)-2-acetylcyclohexanone, a Novel FtsZ Inhibitor” (Molecules, 2022)
